Results on six compounds are retold here after patent US8552022B2, “Substituted cyclopropyl compounds, compositions containing such compounds and methods of treatment” (Merck Sharp & Dohme Corp., priority 2009, dated 2013).

The target in the assay is T1, GPR119 (UniProt Q8TDV5, S309L, species not given).
T1 sequence (Q8TDV5 1-335 S309L): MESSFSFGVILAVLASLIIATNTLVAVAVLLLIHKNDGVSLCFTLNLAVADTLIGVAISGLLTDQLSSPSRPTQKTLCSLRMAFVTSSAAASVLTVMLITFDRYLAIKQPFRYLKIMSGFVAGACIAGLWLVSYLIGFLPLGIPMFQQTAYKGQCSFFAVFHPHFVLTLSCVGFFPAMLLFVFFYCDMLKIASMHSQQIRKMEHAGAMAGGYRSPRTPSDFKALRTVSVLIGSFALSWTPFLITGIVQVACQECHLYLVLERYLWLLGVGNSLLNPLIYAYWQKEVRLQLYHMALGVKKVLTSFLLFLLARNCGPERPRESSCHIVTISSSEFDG
The assay can be described thus: GPR119 signaling, cyclic AMP (cAMP) HTRF assay. The format is cell-based, human (S309L variant) or murine. The note with it: CHO cells with Gα15 and murine GPR119 or HEK293 Flp-In cells with human GPR119 S309L, read-out: EC50 (agonist activation of GPR119, cAMP). An excerpt:
The title compound was synthesized using 2-{2-[1-(5-chloropyrimidin-2-yl)piperidin-4-yl]cyclopropyl}ethyl 4-methylbenzenesulfonate from step 1 of this example by a general procedure analogous that described in Example 59. LRMS calc: 424.9; obs: 425.01 (M+1). Measurement of GPR119Signaling Using a Cyclic AMP (cAMP) Homogenous Time Resolved Fluorescence (HTRF) Assay
Chinese hamster ovary (CHO) cell lines stably transfected with the permissive guanine nucleotide binding protein alpha 15 (Gα15) and murine GPR119 were maintained in DMEM media containing FBS, penicillin-streptomycin, puromycin, and G418 (geneticin). Alternatively, human embryonic kidney (HEK)293 Flp-In cells (Invitrogen, Carlsbad, Calif.) were stably transfected with a human SNP variant (S309L) of GPR119 and maintained in DMEM media containing FBS, penicillin-streptomycin, and hygromycin. Agonist activation of the GPR119 receptor was measured in receptor transfected cells described above, treated with compounds of this invention, using a commercial homogenous time resolved fluorescence (HTRF) kit for measurement of cAMP (CisBio, Bedford, Mass.). The assay was performed in 96-well half-volume plates (murine) or 384-well plates (human) following the manufacturers instructions. Briefly, suspended cells were incubated with a dose titration of test compound at room temperature for 60 min, lysed, and incubated with HTRF reagents for an additional 60 min. The plate was read using an Envision multilabel reader (Perkin Elmer) adjusted to read time resolved fluorescence and the cAMP concentrations were extrapolated from a cAMP calibration curve. […] The concentration of test compound required to stimulate a half-maximal response (EC50), and efficacy as compared to an internal agonist control, was determined from a sigmoidal 4-parameter curve fit of the resulting plot of normalized activity versus compound concentration.

Turning to `O=C(Cc1ccc(NCC[C@@H]2C[C@@H]2C2CCN(c3ncc(Cl)cn3)CC2)cc1)NC1CC1` [Ex 43, 2-{4-[(2-{(1S,2S)-2-[1-(5-chloropyrimidin-2-yl)piperidin-4-yl]cyclopropyl}ethyl)amino]phenyl}-N-cyclopropylacetamide], the EC50 fell in the range of 10 to 50 nM. As for `CC(C)(C)C(=O)Nc1ncc(NCC[C@@H]2C[C@@H]2C2CCN(c3ncc(Cl)cn3)CC2)cc1Cl` [Ex 32, N-{3-chloro-5-[(2-{(1S,2S)-2-[1-(5-chloropyrimidin-2-yl)piperidin-4-yl]cyclopropyl}ethyl)amino]pyridin-2-yl}-2,2-dimethyl propanamide], the figure is less than 10 nM. For `Cn1cnnc1-c1ccc(NCC[C@@H]2C[C@@H]2C2CCN(c3ncc(Cl)cn3)CC2)cc1` [Ex 13, N-(2-{(1S,2S)-2-[1-(5-chloropyrimidin-2-yl)piperidin-4-yl]cyclopropyl}ethyl)-4-(4-methyl-4H-1,2,4-triazol-3-yl)aniline] the value was 10 to 50 nM. As for `Clc1cnc(N2CCC([C@H]3C[C@H]3CCNc3ccc(-n4ccnn4)cc3)CC2)nc1` [Ex 21, N-(2-{(1S,2S)-2-[1-(5-chloropyrimidin-2-yl)piperidin-4-yl]cyclopropyl}ethyl)-4-(1H-1,2,3-triazol-1-yl)aniline], the figure is less than 10 nM; as for `Cc1cc(NCC[C@@H]2C[C@@H]2C2CCN(c3ncc(Cl)cn3)CC2)cnc1NC(=O)C(C)(C)C` [Ex 31, N-{5-[(2-{(1S,2S)-2-[1-(5-chloropyrimidin-2-yl)piperidin-4-yl]cyclopropyl}ethyl)amino]-3-methylpyridin-2-yl}-2,2-dimethyl propanamide], less than 10 nM. Turning to `Cc1nc(C#N)cc(NCC[C@@H]2C[C@@H]2C2CCN(c3ncc(Cl)cn3)CC2)n1` (racemic) [Ex 4, rac-cis-6-[(2-{2-[1-(5-chloropyrimidin-2-yl)piperidin-4-yl]cyclopropyl}ethyl)amino]-2-methylpyrimidine-4-carbonitrile], the EC50 is less than 10 nM.
